Assay results published in paper PMC8699473, “An Easily Expandable Multi-Drug LC-MS Assay for the Simultaneous Quantification of 57 Oral Antitumor Drugs in Human Plasma” (Cancers, 2021).
“And” between values parts separate entries of the source, which are not always exact repeats. Equal entries are not always repeated.

How the values were obtained:
[1] = Autosampler stability of ready for injection samples; format: physicochemical, human
[2] = Long-term stability in spiked pooled human plasma
[3] = design: method as in supplement references [1-55] as printed per drug; conditions: minimum steady-state blood plasma concentration after multiple dose administration; ref supplement references [1-55] per drug; cited from earlier work
[4] = Plasma concentrations in patients on oral antitumor therapy (LC-MS); format: in vivo, human; conditions: for Measured plasma concentration: 24 h
Source text: The liquid chromatography-mass spectrometer system consisted of a Thermo Scientific Dionex UltiMate^TM 3000 with an integrated and temperature controlled autosampler (Thermo Fisher Scientific, Dreieich, Germany). An Acquity UPLC® BEH C18 column (2.1 × 100 mm, 1.7 µm; Waters, Milford, CT, USA) equipped with an Acquity UPLC® BEH C18 VanGuard^TM Pre-Column (2.1 × 5 mm, 1.7 µm; Waters, Milford, CT, USA) was used for chromatographic separation. The Q-Exactive^TM Focus mass spectrometer (MS) was hyphenated with a heated electrospray ionization (HESI) source (both from Thermo Fisher Scientific, Dreieich, Germany).
Chromatographic separation was achieved using a gradient elution with water containing 0.5% (v/v) FA (eluent A) and MeOH with 0.1% (v/v) FA (eluent B). The injection volume was 5 µL. The gradient program is shown in Supplement Table S2. The flow rate was 0.5 mL/min with a total run time of 15 min. The column heater was maintained at 50 °C and the autosampler temperature was 4 °C.
The following MS and HESI settings were maintained for all analyses: Sheath gas, auxiliary gas, and sweep gas flow rates were set to 60, 20, and 0, respectively. The spray voltage was 4000 V. Both capillary and auxiliary gas heater temperatures were set to 400 °C. High-purity nitrogen gas was used for the HESI source gases and for the bath gas of the C-trap. […] The HESI source was configured in positive mode for ionization.
The stock solutions were stored in glass vials at −80 °C. Aliquots of all stock solutions were combined in ACN (volumes of individual stock solution solvents are negligible) to obtain a standard solution of all analytes with an individual concentration of 200% of the respective trough level (cmin). Eight individual working standards were prepared by stepwise dilution of this standard solution with concentrations from 10 to 200% cmin (shown in Supplement Table S3). Furthermore, the four individual IS stock solutions were combined and diluted to 50 ng/mL with ACN. Calibration and validation standards were prepared by spiking 50 µL pooled human plasma with 10 µL of the respective working solution. Next, 250 µL IS solution (50 ng/mL in ACN) were added and vortexed vigorously. […] Then, 100 µL supernatant were transferred to 300 µL HPLC insert glass vials and diluted with 100 µL eluent (90% A/10% B). For blank samples, 50 µL pooled human plasma were combined with 10 µL ACN (instead of working solution) and prepared as described above. The calibration and validation standards were freshly prepared before every run. Patient plasma samples were prepared as calibration and validation standards (no additional processing step necessary), except for adding 10 µL ACN instead of 10 µL working standard. Before sample preparation, the frozen plasma samples were thawed in absence of light at 4 °C.
Blood samples were collected over the entire dosing interval from patients treated with an oral anticancer drug as listed in Supplement Table S4. […] A maximum of two samples at two different time points throughout the entire dosing interval were collected per patient. Treatment duration before collection was at least five half-lives (depending on the specific oral anticancer drug). The samples were collected in K3-EDTA tubes.
A total of 71 blood samples from 39 patients treated with 14 different oral anticancer drugs were collected (see Supplement Table S4 for details). All patients were recruited from independent outpatient clinics associated with the Comprehensive Cancer Center of the University Hospital Erlangen (CCC Erlangen-EMN). Of 71 blood samples, 41 were taken ±4 h of trough level (cmin).

[5] = Freeze-thaw stability in spiked pooled human plasma; format: physicochemical
[6] = Short-term stability in spiked pooled human plasma (bench-top, 4 °C, 56 °C)
[7] = patient plasma, all samples, r.c. = respective cmin

## CNC(=O)c1ccc(N2C(=S)N(c3ccc(C#N)c(C(F)(F)F)c3)C(=O)C2(C)C)cc1F [Enzalutamide]
[1]; validation standard 2xLLOV
  Autosampler (24h, 4°C) Accuracy [%]: 100.5%
  Autosampler (72h, 4°C) Accuracy [%]: 102.2%
[1]; validation standard LLOV
  Autosampler (24h, 4°C) Accuracy [%]: 89.9%
  Autosampler (72h, 4°C) Accuracy [%]: 91.3%
[1]; validation standard MOV
  Autosampler (24h, 4°C) Accuracy [%]: 108.0%
  Autosampler (72h, 4°C) Accuracy [%]: 105.7%
[1]; validation standard ULOV
  Autosampler (24h, 4°C) Accuracy [%]: 101.7%
  Autosampler (72h, 4°C) Accuracy [%]: 103.3%
[2]; validation standard 2xLLOV
  Long-term stability, 1 month, -20°C Accuracy [%]: 92.7%
  Long-term stability, 1 month, -80°C Accuracy [%]: 87.8%
  Long-term stability, 2 month, -20°C Accuracy [%]: 91.5%
  Long-term stability, 2 month, -80°C Accuracy [%]: 92.9%
  Long-term stability, 3 month, -20°C Accuracy [%]: 87.1%
  Long-term stability, 3 month, -80°C Accuracy [%]: 89.0%
  Long-term stability, 6 weeks, 4°C, without daylight Accuracy [%]: 96.8%
[2]; validation standard LLOV
  Long-term stability, 1 month, -20°C Accuracy [%]: 92.6%
  Long-term stability, 1 month, -80°C Accuracy [%]: 82.3%
  Long-term stability, 2 month, -20°C Accuracy [%]: 90.2%
  Long-term stability, 2 month, -80°C Accuracy [%]: 94.8%
  Long-term stability, 3 month, -20°C Accuracy [%]: 88.7%
  Long-term stability, 3 month, -80°C Accuracy [%]: 88.4%
  Long-term stability, 6 weeks, 4°C, without daylight Accuracy [%]: 97.2%
[2]; validation standard MOV
  Long-term stability, 1 month, -20°C Accuracy [%]: 90.3%
  Long-term stability, 1 month, -80°C Accuracy [%]: 90.6%
  Long-term stability, 2 month, -20°C Accuracy [%]: 92.8%
  Long-term stability, 2 month, -80°C Accuracy [%]: 95.7%
  Long-term stability, 3 month, -20°C Accuracy [%]: 91.6%
  Long-term stability, 3 month, -80°C Accuracy [%]: 90.6%
  Long-term stability, 6 weeks, 4°C, without daylight Accuracy [%]: 105.1%
[2]; validation standard ULOV
  Long-term stability, 1 month, -20°C Accuracy [%]: 85.8%
  Long-term stability, 1 month, -80°C Accuracy [%]: 86.1%
  Long-term stability, 2 month, -20°C Accuracy [%]: 90.8%
  Long-term stability, 2 month, -80°C Accuracy [%]: 90.3%
  Long-term stability, 3 month, -20°C Accuracy [%]: 87.7%
  Long-term stability, 3 month, -80°C Accuracy [%]: 87.3%
  Long-term stability, 6 weeks, 4°C, without daylight Accuracy [%]: 95.0%
[3]
  cmin: 11400 ng/mL
[4]; 160 mg/day, ±4 h of trough level: yes
  Measured plasma concentration: 11296.4 ng/mL and 14087.2 ng/mL and 14395.8 ng/mL and 17580.7 ng/mL and 11074.7 ng/mL
[4]; [7]
  Median Concentration of All Samples [% of r.c.]: 120.1 % of r.c.
  Min–Max Concentration [% of r.c.]: 97.1–154.2 % of r.c.
[5]; validation standard 2xLLOV
  Freeze-Thaw Accuracy [%]: 97.8%
[5]; validation standard LLOV
  Freeze-Thaw Accuracy [%]: 87.6%
[5]; validation standard MOV
  Freeze-Thaw Accuracy [%]: 100.9%
[5]; validation standard ULOV
  Freeze-Thaw Accuracy [%]: 96.1%
[6]; validation standard 2xLLOV
  Short-time stability (1h, 56°C) Accuracy [%]: 59.4%
  Short-time stability (24h, 4°C, without daylight) Accuracy [%]: 103.3%
  Short-time stability (24h, RT, with daylight) Accuracy [%]: 106.1%
  Short-time stability (24h, RT, without daylight) Accuracy [%]: 108.3%
[6]; validation standard LLOV
  Short-time stability (1h, 56°C) Accuracy [%]: 50.0%
  Short-time stability (24h, 4°C, without daylight) Accuracy [%]: 102.0%
  Short-time stability (24h, RT, with daylight) Accuracy [%]: 100.4%
  Short-time stability (24h, RT, without daylight) Accuracy [%]: 103.0%
[6]; validation standard MOV
  Short-time stability (1h, 56°C) Accuracy [%]: 58.9%
  Short-time stability (24h, 4°C, without daylight) Accuracy [%]: 98.9%
  Short-time stability (24h, RT, with daylight) Accuracy [%]: 108.7%
  Short-time stability (24h, RT, without daylight) Accuracy [%]: 107.8%
[6]; validation standard ULOV
  Short-time stability (1h, 56°C) Accuracy [%]: 50.9%
  Short-time stability (24h, 4°C, without daylight) Accuracy [%]: 95.8%
  Short-time stability (24h, RT, with daylight) Accuracy [%]: 103.4%
  Short-time stability (24h, RT, without daylight) Accuracy [%]: 103.8%

## C=CC(=O)Nc1cc(Nc2nccc(-c3cn(C)c4ccccc34)n2)c(OC)cc1N(C)CCN(C)C [Osimertinib]
[1]; validation standard 2xLLOV
  Autosampler (24h, 4°C) Accuracy [%]: 104.2%
  Autosampler (72h, 4°C) Accuracy [%]: 99.1%
[1]; validation standard LLOV
  Autosampler (24h, 4°C) Accuracy [%]: 90.3%
  Autosampler (72h, 4°C) Accuracy [%]: 91.2%
[1]; validation standard MOV
  Autosampler (24h, 4°C) Accuracy [%]: 103.8%
  Autosampler (72h, 4°C) Accuracy [%]: 100.3%
[1]; validation standard ULOV
  Autosampler (24h, 4°C) Accuracy [%]: 98.4%
  Autosampler (72h, 4°C) Accuracy [%]: 99.1%
[2]; validation standard 2xLLOV
  Long-term stability, 1 month, -20°C Accuracy [%]: 95.2%
  Long-term stability, 1 month, -80°C Accuracy [%]: 93.2%
  Long-term stability, 2 month, -20°C Accuracy [%]: 89.2%
  Long-term stability, 2 month, -80°C Accuracy [%]: 103.9%
  Long-term stability, 3 month, -20°C Accuracy [%]: 82.8%
  Long-term stability, 3 month, -80°C Accuracy [%]: 100.0%
  Long-term stability, 6 weeks, 4°C, without daylight Accuracy [%]: 10.5%
[2]; validation standard LLOV
  Long-term stability, 1 month, -20°C Accuracy [%]: 83.0%
  Long-term stability, 1 month, -80°C Accuracy [%]: 86.9%
  Long-term stability, 2 month, -20°C Accuracy [%]: 84.8%
  Long-term stability, 2 month, -80°C Accuracy [%]: 96.9%
  Long-term stability, 3 month, -20°C Accuracy [%]: 66.7%
  Long-term stability, 3 month, -80°C Accuracy [%]: 91.8%
  Long-term stability, 6 weeks, 4°C, without daylight Accuracy [%]: 5.4%
[2]; validation standard MOV
  Long-term stability, 1 month, -20°C Accuracy [%]: 97.0%
  Long-term stability, 1 month, -80°C Accuracy [%]: 96.6%
  Long-term stability, 2 month, -20°C Accuracy [%]: 95.2%
  Long-term stability, 2 month, -80°C Accuracy [%]: 101.6%
  Long-term stability, 3 month, -20°C Accuracy [%]: 90.9%
  Long-term stability, 3 month, -80°C Accuracy [%]: 101.8%
  Long-term stability, 6 weeks, 4°C, without daylight Accuracy [%]: 53.4%
[2]; validation standard ULOV
  Long-term stability, 1 month, -20°C Accuracy [%]: 92.3%
  Long-term stability, 1 month, -80°C Accuracy [%]: 93.2%
  Long-term stability, 2 month, -20°C Accuracy [%]: 91.4%
  Long-term stability, 2 month, -80°C Accuracy [%]: 101.4%
  Long-term stability, 3 month, -20°C Accuracy [%]: 88.6%
  Long-term stability, 3 month, -80°C Accuracy [%]: 93.8%
  Long-term stability, 6 weeks, 4°C, without daylight Accuracy [%]: 41.5%
[3]
  cmin: 166 ng/mL
[4]; 80 mg/day, ±4 h of trough level: no
  Measured plasma concentration: 167.8 ng/mL
[4]; [7]
  Min–Max Concentration [% of r.c.]: 101.1 % of r.c.
[5]; validation standard 2xLLOV
  Freeze-Thaw Accuracy [%]: 93.7%
[5]; validation standard LLOV
  Freeze-Thaw Accuracy [%]: 95.6%
[5]; validation standard MOV
  Freeze-Thaw Accuracy [%]: 96.2%
[5]; validation standard ULOV
  Freeze-Thaw Accuracy [%]: 92.7%
[6]; 24 h, room temperature, with or without light
  concentrations in short-term stability investigations: 60.5–75.7%
[6]; validation standard 2xLLOV
  Short-time stability (1h, 56°C) Accuracy [%]: 29.9%
  Short-time stability (24h, 4°C, without daylight) Accuracy [%]: 95.8%
  Short-time stability (24h, RT, with daylight) Accuracy [%]: 61.4%
  Short-time stability (24h, RT, without daylight) Accuracy [%]: 61.7%
[6]; validation standard LLOV
  Short-time stability (1h, 56°C) Accuracy [%]: 28.7%
  Short-time stability (24h, 4°C, without daylight) Accuracy [%]: 85.8%
  Short-time stability (24h, RT, with daylight) Accuracy [%]: 62.0%
  Short-time stability (24h, RT, without daylight) Accuracy [%]: 60.5%
[6]; validation standard MOV
  Short-time stability (1h, 56°C) Accuracy [%]: 30.1%
  Short-time stability (24h, 4°C, without daylight) Accuracy [%]: 96.3%
  Short-time stability (24h, RT, with daylight) Accuracy [%]: 75.7%
  Short-time stability (24h, RT, without daylight) Accuracy [%]: 72.0%
[6]; validation standard ULOV
  Short-time stability (1h, 56°C) Accuracy [%]: 26.0%
  Short-time stability (24h, 4°C, without daylight) Accuracy [%]: 86.7%
  Short-time stability (24h, RT, with daylight) Accuracy [%]: 67.4%
  Short-time stability (24h, RT, without daylight) Accuracy [%]: 63.9%
